≈ marks a conversion by molar mass, not a printed value. Where two headings read alike, the source gives them in different places.
What was measured:
P. aeruginosa ATCC 27853 = test system: P. aeruginosa ATCC 27853
Protocol: (§1) The bacteria Staphylococcus aureus ATCC 25923, Staphylococcus aureus ATCC 43300,Escherichia coli ATCC 25922 and Pseudomonas aeruginosa ATCC 27853 were cultivated on tryptone-soy agar (TSA; Oxoid) for 24 h at 37 °C. Broth microdilution susceptibility tests were performed as described in the Committee Laboratory Standards (CLSI) reference method M07-A8 [41]. Bacteria inocula (5 µL) containing 10^6 CFU/mL were used. The final concentration of dendrimers ranged from 256 to 2 µg/mL, polymyxin B and penicillin G from 8 to 0,15 µg/mL (or 5.8 to 0.1 µM and 21.5 to 0.4 µM, respectively for polymyxin B and penicillin G) were the reference compounds. The plates were incubated at 35 °C and were read after 18 or 24 h depending on the bacterial strain. Minimal Inhibitory Concentrations (MICs) were defined as the lowest drug concentration that reduced the growth by 100%.

E. coli ATCC 25922 [1] = test system: E. coli ATCC 25922
Protocol: as §1

S. aureus ATCC 43300 = test system: S. aureus ATCC 43300
Protocol: as §1

S. aureus ATCC 25923 = test: microbe, parasite or virus in culture
Protocol: as §1

E. coli ATCC 25922 [2] = type: cell-based, Escherichia coli; details: for Activity (MIC) at 200 µM Na+ or K+ concentration / Change of bioactivity on increase of Ca2+ and Mg2+ concentration / Sensitivity of MIC to increase of Na+ or K+ concentration: E. coli ATCC 25922; for Activity (MIC) at 200 µM Na+ or K+ concentration / Sensitivity of MIC to increase of Na+ or K+ concentration: triplicate; for Change of bioactivity on increase of Ca2+ and Mg2+ concentration: Ca2+ and Mg2+ up to 5 mM; for Sensitivity of MIC to increase of Na+ or K+ concentration: Na+ or K+ up to 100 µM, CAMHB with added NaCl or KCl
Protocol: as §1
The effect of salt concentration on the antimicrobial activity of two dendrimers was tested by determining the MICs under a variety of cations concentrations. CAMHB used in the assay was altered by the addition of salt. NaCl or KCl were added to the media to a final concentrations of 10, 50, 100, 200, 500 mM, wheareas CaCl2 or MgCl2 were added to the media to a final concentrations of 0.5, 1.5, 2.5, 5.5, 10.5, and 20.5 mM. Additionally, similar test was performed using MHB (without Ca^2+, Mg^2+) for divalent cations Ca^2+ and Mg^2+. Experiment was performed in triplicate.

human red blood cells = test: Hemolysis assay; type: cell-based; details: 1% hematocrit in PBS pH 7.4, 30 min at 23 °C, from Figure 4
Protocol: Dendrimer-induced hemolysis was measured as previously reported. Briefly, human red blood cells obtained from healthy volunteers, were suspended in phosphate buffered saline (PBS, pH 7.4). Prepared suspension of 1% hematocrit was incubated with serial concentration of dendrimers for 30 min at 23 °C. After centrifugation (4,000 rpm, 5 min) the absorbance of supernatant was measured at 540 nm (Spectrostar Omega, BMG Labtech, Ortenberg, Germany). A value of 100% hemolysis was determined by incubation of erythrocytes with double-distilled water (30 min at 23 °C). In a control experiment, cells were incubated in buffer without peptide and absorbance at 540 nm value was used as a blank:
A: Absorbance of the samples incubated with dendrimers;
Ab: Absorbance of the blank samples;
A100%: Absorbance of the reference;
Ac: Absorbance of red blood cells in PBS, hematocrit 1%.

[3] = broth microdilution CLSI M07-A8, CAMHB with 0.5 mM Ca2+ and Mg2+, 35 °C, 18 or 24 h
[4] = methicillin-resistant strain, broth microdilution CLSI M07-A8, CAMHB with 0.5 mM Ca2+ and Mg2+, 35 °C, 18 or 24 h
[5] = broth microdilution CLSI M07-A8, CAMHB with 0.5 mM Ca2+ and Mg2+, no K+ and Na+, 35 °C, read after 18 or 24 h, MIC = lowest concentration reducing growth by 100%

NCCCC[C@H](NC(=O)OCc1ccccc1Cl)C(=O)NCCNC(=O)CCN(CCC[C@@H](C(=O)NCCc1c[nH]c2ccccc12)N(CCC(=O)NCCNC(=O)[C@H](CCCCN)NC(=O)OCc1ccccc1Cl)CCC(=O)NCCNC(=O)[C@H](CCCCN)NC(=O)OCc1ccccc1Cl)CCC(=O)NCCNC(=O)[C@H](CCCCN)NC(=O)OCc1ccccc1Cl [Dendrimer 3b]
Minimal inhibitory concentration (MIC), P. aeruginosa ATCC 27853 (P. aeruginosa ATCC 27853; [3]): 51 µM (≈ 97.8 µg/mL)
Minimal inhibitory concentration (MIC), E. coli ATCC 25922 (E. coli ATCC 25922 [1]; [3]): 12.1 µM (≈ 23.2 µg/mL)
Minimal inhibitory concentration (MIC), S. aureus ATCC 43300 (S. aureus ATCC 43300; [4]): 12.1 µM (≈ 23.2 µg/mL)
Minimal inhibitory concentration (MIC), S. aureus ATCC 25923 (S. aureus ATCC 25923; [5]): 1.87 µM (≈ 3.59 µg/mL)
MIC in presence of Ca2+ (E. coli ATCC 25922 [2]; ATCC 25922, 24 h): 119.8 µM
Activity (MIC) at 200 µM Na+ or K+ concentration (E. coli ATCC 25922 [2]): retained much activity
Change of bioactivity on increase of Ca2+ and Mg2+ concentration (E. coli ATCC 25922 [2]): slow decrease
Sensitivity of MIC to increase of Na+ or K+ concentration (E. coli ATCC 25922 [2]): not sensitive

CCCCCCCCCCCCNC(=O)[C@H](CCCN(CCC(=O)NCCNC(=O)[C@H](CCCCN)NC(=O)OCc1ccccc1Cl)CCC(=O)NCCNC(=O)[C@H](CCCCN)NC(=O)OCc1ccccc1Cl)N(CCC(=O)NCCNC(=O)[C@H](CCCCN)NC(=O)OCc1ccccc1Cl)CCC(=O)NCCNC(=O)[C@H](CCCCN)NC(=O)OCc1ccccc1Cl [Dendrimer 3d]
Minimal inhibitory concentration (MIC), E. coli ATCC 25922 (E. coli ATCC 25922 [1]; ATCC 25922, 24 h): 1.85 µM (≈ 3.59 µg/mL)
Minimal inhibitory concentration (MIC), S. aureus ATCC 25923 (S. aureus ATCC 25923; ATCC 25923, 24 h): 1.85 µM (≈ 3.59 µg/mL)

CCCCCCCCCCCCNC(=O)[C@H](CCCN(CCC(=O)NCCNC(=O)[C@@H](N)CCCCNC(=O)OCc1ccccc1Cl)CCC(=O)NCCNC(=O)[C@@H](N)CCCCNC(=O)OCc1ccccc1Cl)N(CCC(=O)NCCNC(=O)[C@@H](N)CCCCNC(=O)OCc1ccccc1Cl)CCC(=O)NCCNC(=O)[C@@H](N)CCCCNC(=O)OCc1ccccc1Cl [Dendrimer 3h]
Minimal inhibitory concentration (MIC), P. aeruginosa ATCC 27853 (P. aeruginosa ATCC 27853; ATCC 27853, 24 h): 32 µM (≈ 62.2 µg/mL)
Minimal inhibitory concentration (MIC), E. coli ATCC 25922 (E. coli ATCC 25922 [1]; ATCC 25922, 24 h): 7.9 µM (≈ 15.4 µg/mL)
Minimal inhibitory concentration (MIC), S. aureus ATCC 43300 (S. aureus ATCC 43300; ATCC 43300, 24 h): 1.85 µM (≈ 3.59 µg/mL)
Minimal inhibitory concentration (MIC), S. aureus ATCC 25923 (S. aureus ATCC 25923; ATCC 25923, 24 h): 3.7 µM (≈ 7.19 µg/mL)

NCCCC[C@H](NC(=O)OCc1ccccc1Cl)C(=O)NCCNC(=O)CCN(CCC[C@@H](C(=O)NCCc1cnc[nH]1)N(CCC(=O)NCCNC(=O)[C@H](CCCCN)NC(=O)OCc1ccccc1Cl)CCC(=O)NCCNC(=O)[C@H](CCCCN)NC(=O)OCc1ccccc1Cl)CCC(=O)NCCNC(=O)[C@H](CCCCN)NC(=O)OCc1ccccc1Cl [Dendrimer 3c]
Minimal inhibitory concentration (MIC), P. aeruginosa ATCC 27853 (P. aeruginosa ATCC 27853; ATCC 27853, 24 h): 141 µM (≈ 264 µg/mL)
Minimal inhibitory concentration (MIC), E. coli ATCC 25922 (E. coli ATCC 25922 [1]; ATCC 25922, 24 h): 141 µM (≈ 264 µg/mL)
Minimal inhibitory concentration (MIC), S. aureus ATCC 43300 (S. aureus ATCC 43300; ATCC 43300, 24 h): 141 µM (≈ 264 µg/mL)
Minimal inhibitory concentration (MIC), S. aureus ATCC 25923 (S. aureus ATCC 25923; ATCC 25923, 24 h): 24.7 µM (≈ 46.2 µg/mL)

NCCCC[C@H](NC(=O)OCc1ccccc1Cl)C(=O)NCCNC(=O)CCN(CCC[C@@H](C(=O)Nc1cccnc1)N(CCC(=O)NCCNC(=O)[C@H](CCCCN)NC(=O)OCc1ccccc1Cl)CCC(=O)NCCNC(=O)[C@H](CCCCN)NC(=O)OCc1ccccc1Cl)CCC(=O)NCCNC(=O)[C@H](CCCCN)NC(=O)OCc1ccccc1Cl [Dendrimer 3a]
Minimal inhibitory concentration (MIC), P. aeruginosa ATCC 27853 (P. aeruginosa ATCC 27853; [3]): >252 µM
Minimal inhibitory concentration (MIC), E. coli ATCC 25922 (E. coli ATCC 25922 [1]; [3]): >252 µM
Minimal inhibitory concentration (MIC), S. aureus ATCC 43300 (S. aureus ATCC 43300; [4]): >252 µM
Hemotoxicity (level) (human red blood cells): much lower toxicity and low
Minimal inhibitory concentration (MIC), S. aureus ATCC 25923 (S. aureus ATCC 25923; [5]): 2.85 µM (≈ 5.28 µg/mL)

N[C@@H](CCCCNC(=O)OCc1ccccc1Cl)C(=O)NCCNC(=O)CCN(CCC[C@@H](C(=O)NCCc1c[nH]c2ccccc12)N(CCC(=O)NCCNC(=O)[C@@H](N)CCCCNC(=O)OCc1ccccc1Cl)CCC(=O)NCCNC(=O)[C@@H](N)CCCCNC(=O)OCc1ccccc1Cl)CCC(=O)NCCNC(=O)[C@@H](N)CCCCNC(=O)OCc1ccccc1Cl [Dendrimer 3f]
Minimal inhibitory concentration (MIC), P. aeruginosa ATCC 27853 (P. aeruginosa ATCC 27853; [3]): 60 µM (≈ 115 µg/mL)
Minimal inhibitory concentration (MIC), E. coli ATCC 25922 (E. coli ATCC 25922 [1]; [3]): 7.9 µM (≈ 15.2 µg/mL)
Minimal inhibitory concentration (MIC), S. aureus ATCC 43300 (S. aureus ATCC 43300; [4]): 20.4 µM (≈ 39.1 µg/mL)
Minimal inhibitory concentration (MIC), S. aureus ATCC 25923 (S. aureus ATCC 25923; [5]): 0.93 µM (≈ 1.78 µg/mL)
MIC in presence of Mg2+ (E. coli ATCC 25922 [2]; ATCC 25922, 24 h): 119.8 µM
Activity (MIC) at 200 µM Na+ or K+ concentration (E. coli ATCC 25922 [2]): retained much activity
Change of bioactivity on increase of Ca2+ and Mg2+ concentration (E. coli ATCC 25922 [2]): slow decrease
Sensitivity of MIC to increase of Na+ or K+ concentration (E. coli ATCC 25922 [2]): not sensitive

CC1(C)S[C@@H]2[C@H](NC(=O)Cc3ccccc3)C(=O)N2[C@H]1C(=O)O [Penicillin G, reference compound]
MIC (S. aureus ATCC 25923; Staphylococcus aureus, ATCC25923, read-out: Minimal inhibitory concentration (MIC), S. aureus ATCC 25923): 6.6 µM (≈ 2.21 µg/mL)

N[C@@H](CCCCNC(=O)OCc1ccccc1Cl)C(=O)NCCNC(=O)CCN(CCC[C@@H](C(=O)Nc1cccnc1)N(CCC(=O)NCCNC(=O)[C@@H](N)CCCCNC(=O)OCc1ccccc1Cl)CCC(=O)NCCNC(=O)[C@@H](N)CCCCNC(=O)OCc1ccccc1Cl)CCC(=O)NCCNC(=O)[C@@H](N)CCCCNC(=O)OCc1ccccc1Cl [Dendrimer 3e]
Minimal inhibitory concentration (MIC), P. aeruginosa ATCC 27853 (P. aeruginosa ATCC 27853; [3]): 142 µM (≈ 263 µg/mL)
Minimal inhibitory concentration (MIC), E. coli ATCC 25922 (E. coli ATCC 25922 [1]; [3]): 142 µM (≈ 263 µg/mL)
Minimal inhibitory concentration (MIC), S. aureus ATCC 43300 (S. aureus ATCC 43300; [4]): 142 µM (≈ 263 µg/mL)
Hemotoxicity (level) (human red blood cells): highest hemotoxicity and high
Minimal inhibitory concentration (MIC), S. aureus ATCC 25923 (S. aureus ATCC 25923; [5]): 16.6 µM (≈ 30.7 µg/mL)

N[C@@H](CCCCNC(=O)OCc1ccccc1Cl)C(=O)NCCNC(=O)CCN(CCC[C@@H](C(=O)NCCc1cnc[nH]1)N(CCC(=O)NCCNC(=O)[C@@H](N)CCCCNC(=O)OCc1ccccc1Cl)CCC(=O)NCCNC(=O)[C@@H](N)CCCCNC(=O)OCc1ccccc1Cl)CCC(=O)NCCNC(=O)[C@@H](N)CCCCNC(=O)OCc1ccccc1Cl [Dendrimer 3g]
Minimal inhibitory concentration (MIC), P. aeruginosa ATCC 27853 (P. aeruginosa ATCC 27853; ATCC 27853, 24 h): 211 µM (≈ 394 µg/mL)
Minimal inhibitory concentration (MIC), E. coli ATCC 25922 (E. coli ATCC 25922 [1]; ATCC 25922, 24 h): 211 µM (≈ 394 µg/mL)
Minimal inhibitory concentration (MIC), S. aureus ATCC 43300 (S. aureus ATCC 43300; ATCC 43300, 24 h): 16.4 µM (≈ 30.7 µg/mL)
Minimal inhibitory concentration (MIC), S. aureus ATCC 25923 (S. aureus ATCC 25923; ATCC 25923, 24 h): 51 µM (≈ 95.3 µg/mL)
